US9844226B2 (AJINOMOTO CO., INC., priority 2009, dated 2017)

Tested on: panelists
Assay: Strength of kokumi-imparting activity by Point of Subjective Equality (PSE), limit-determining technique
Assay type: in vivo, human
Details: from PSE
Protocol: The intensity of the kokumi-imparting activity of γ-Glu-Abu was determined by Point of Subjective Equality (PSE) according to the limit-determining technique (“Statistical Sensory Examination techniques”, written by SATO Shin, published by Japan Federation of Science and Technology). The sensory evaluation was carried out as follows: Distilled water containing sodium glutamate (0.05 g/dL), inosine monophosphate (0.05 g/dL) and sodium chloride (0.5 g/dL) was used as the solution for the sensory evaluation. […] To determine the concentration of γ-Glu-Val at which the strength of taste is the same as that of a solution obtained by causing the solution for the sensory evaluation to contain 0.005 g/dL of γ-[…] solutions were prepared with a concentration that varied on a 50% logarithmic scale by using a solution obtained by causing the solution for the sensory evaluation, to contain 0.01 g/dL of γ-Glu-Val as a standard. The concentrations of γ-Glu-Val was set to 7 values ranging from 0.0030 to 0.0337 g/dL. After the test substance was dissolved, samples more acidic than the control with no added test substance were adjusted, before further use, with NaOH to have a pH in a range of ±0.2 as compared to the pH of the control with no added test substance. The solutions were presented to eighteen panelists in ascending order of the γ-Glu-Val concentration. The evaluation was carried out until each panelist perceived that the strength was higher than that of the 0.005 g/dL γ-Glu-Abu solution. After a certain interval, the solutions were next presented to the eighteen panelists in descending order of the γ-Glu-Val concentration. The evaluation was carried out until each panelist perceived that the strength was lower than that of the 0.005 g/dL γ-Glu-Abu solution. In this sensory evaluation, the panelists were experienced in the development of food products. When the lower and upper threshold values were the same, there was no γ-Glu-Val concentration at which the difference between the perception that the strength was lower, and the perception that the strength was higher, was uncertain. […] Each confidence threshold (average) is an average of the lower thresholds and the upper thresholds. The point of subjective equality (PSE) of γ-Glu-Val to 50 ppm (0.0050 g/dL) of γ-Glu-Abu is expressed as follows: (the sum of the confidence threshold of the lower thresholds and that of the upper threshold value)/2.

In the case of `CC[C@H](NC(=O)CC[C@H](N)C(=O)O)C(=O)O`, the “Strength of γ-Glu-Abu relative to γ-Glu-Val” value is reported as “approximately 2.4 times”.
